# Measurements from patent US20110269763A1, “CRTH2 receptor ligands for medicinal uses” (7TM Pharma A/S, priority 2004, published 2011).
# Experiments:
# human CRTH2 [1] = target: T1, human CRTH2 (Homo sapiens, UniProt Q9Y5Y4, V204A); test: Receptor binding assay: [3H]PGD2 competition binding on whole COS-7 cells transiently transfected with CRTH2 (also stable HEK293 cells); design: expressed in transfected cells; host or cells: COS-7 (transient, calcium phosphate)
# T1 sequence (Q9Y5Y4 1-395 V204A): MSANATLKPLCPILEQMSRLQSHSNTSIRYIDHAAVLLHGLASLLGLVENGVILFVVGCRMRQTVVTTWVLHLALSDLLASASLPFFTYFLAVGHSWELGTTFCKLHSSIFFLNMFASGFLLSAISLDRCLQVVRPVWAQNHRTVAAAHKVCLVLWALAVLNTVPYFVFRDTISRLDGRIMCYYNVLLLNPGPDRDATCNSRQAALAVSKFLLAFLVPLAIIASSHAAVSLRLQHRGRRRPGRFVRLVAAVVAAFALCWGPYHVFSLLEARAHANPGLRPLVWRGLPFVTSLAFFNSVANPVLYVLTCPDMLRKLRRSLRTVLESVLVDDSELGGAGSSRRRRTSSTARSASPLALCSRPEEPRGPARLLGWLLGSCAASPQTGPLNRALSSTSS
# Outline: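 Whole COS-7 cells transiently transfected with human CRTH2 (calcium phosphate), or stable HEK293 cells, competed against 0.1 nM [3H]PGD2 in HBSS/10 mM HEPES with 1% DMSO, 3 h at 4 °C. Nonspecific binding with 10 μM PGD2; scintillation counting, duplicates. IC50 from curve fitting.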
# human CRTH2 [2] = target: T1, human CRTH2; test: Functional antagonist BRET assay on HEK293 cells stably expressing human CRTH2-Rluc and GFP2-β-arr2; assay type: cell-based; design: expressed in transfected cells; settings: read-out: Antag. IC50
# Outline: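 Cells (2×10^6/mL in D-PBS with glucose) were preincubated 15 min with antagonist at 1% DMSO, then agonist and DeepBlueC were co-injected. Emission at 400 and 515 nm was read 5 s later, and the mBRET ratio (515/400 nm) was used to derive IC50 from concentration–response curves.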
# [3] = competition with 0.1 nM [3H]PGD2, whole cells, 3 h at 4° C.
# [4] = BRET, antagonist incubated 15 minutes prior to agonist
# [5] = receptor binding assay, Table 3
# [6] = functional antagonist assay, Table 3
IC50 (human CRTH2 [1]; [3]) [nM],IC50 (human CRTH2 [2]; [4]) [nM],IC50 (human CRTH2 [1]; [5]) [nM],IC50 (human CRTH2 [2]; [6]) [nM],Compound
< 500,< 500,,,"O=C(O)COc1ccc(Br)cc1C(=O)c1cnn(-c2ccccc2Br)c1 [D21, 4-Bromo-2-[1-(2-bromophenyl)-1H-pyrazole-4-carbonyl]phenoxyacetic acid]"
,,< 500,< 500,"O=C(O)COc1ccc(Br)cc1-c1nc(Cc2cccc(Cl)c2)no1 [D130, {4-Bromo-2-[3-(3-chlorobenzyl)-[1,2,4]oxadiazol-5-yl]phenoxy}acetic acid]"
< 500,500 to 5000,,,"O=C(O)COc1ccc(F)cc1C(=O)c1cnn(-c2ccccc2)c1 [D3, 4-Fluoro-2-(1-phenyl-1H-pyrazole-4-carbonyl)phenoxyacetic acid]"
< 500,> 5000,,,O=C(O)COc1ccc(Br)cc1C=NNc1ccccn1 [D151]
< 500,< 500,,,O=C(O)COc1ccc(Br)cc1C(=O)c1cnn(-c2ccc(OC(F)(F)F)cc2)c1 [D32]
< 500,< 500,,,"O=C(O)COc1ccc(Br)cc1C(=O)c1cnn(-c2ccccc2OC(F)(F)F)c1 [D52, {4-Bromo-2-[1-(2-trifluoromethoxyphenyl)-1H-pyrazole-4-carbonyl]phenoxy}acetic acid]"
< 500,< 500,,,"CC(Oc1ccc(Br)cc1C(=O)c1cnn(Cc2ccccc2)c1)C(=O)O (stereo not shown) [D57, 2-[2-(1-Benzyl-1H-pyrazole-4-carbonyl)-4-bromophenoxy]propionic acid]"
< 500,< 500,,,"CC(Oc1ccc(Br)cc1C(=O)c1cnn(-c2ccc(Cl)cc2Cl)c1)C(=O)O (stereo not shown) [D51, 2-{4-Bromo-2-[1-(2,4-dichlorophenyl)-1H-pyrazole-4-carbonyl]phenoxy}propionic acid]"
< 500,< 500,,,"O=C(O)COc1ccc(Br)cc1CC1SC(=O)N(Cc2ccncc2)C1=O (stereo not shown) [D145, 4-Bromo-2-(2,4-dioxo-3-pyridin-4-ylmethylthiazolidin-5-ylmethyl)phenoxyacetic acid]"
< 500,< 500,,,"O=C(O)COc1ccc(Br)cc1C(=O)c1cnn(-c2cccc3ccccc23)c1 [D82, [4-Bromo-2-(1-naphthalen-1-yl-1H-pyrazole-4-carbonyl)phenoxy]acetic acid]"
< 500,< 500,,,"Cc1ccc(-n2cc(C(=O)c3cc(Br)ccc3OC(C)C(=O)O)cn2)c(C)c1 (stereo not shown) [D55, 2-{4-Bromo-2-[1-(2,4-dimethylphenyl)-1H-pyrazole-4-carbonyl]phenoxy}propionic acid]"
,,< 500,> 5000,"COc1cccc(Cc2noc(-c3cc(Br)ccc3OCC(=O)O)n2)c1 [D125, {4-Bromo-2-[3-(3-methoxybenzyl)-[1,2,4]oxadiazol-5-yl]phenoxy}acetic acid]"
,,< 500,< 500,"O=C(O)COc1ccc(Br)cc1-c1nc(-c2ccccc2)no1 [D99, [4-Bromo-2-(3-phenyl-[1,2,4]oxadiazol-5-yl)phenoxy]acetic acid]"
,,< 500,< 500,"O=C(O)COc1ccc(Br)cc1-c1nc(-c2ccccc2Cl)no1 [D108, {4-Bromo-2-[3-(2-chlorophenyl)-[1,2,4]oxadiazol-5-yl]phenoxy}acetic acid]"
< 500,< 500,,,"COc1ccccc1-n1cc(C(=O)c2cc(Br)ccc2OCC(=O)O)cn1 [D60, {4-Bromo-2-[1-(2-methoxyphenyl)-1H-pyrazole-4-carbonyl]phenoxy}acetic acid]"
< 500,< 500,,,"O=C(O)COc1ccc(Br)cc1-c1csc(Cc2ccc(Cl)cc2)n1 [D94, {4-Bromo-2-[2-(4-chlorobenzyl)thiazol-4-yl]phenoxy}acetic acid]"

IC50 (human CRTH2 [1]; [3]) [nM],IC50 (human CRTH2 [2]; [4]) [nM],IC50 (human CRTH2 [1]; [5]) [nM],IC50 (human CRTH2 [2]; [6]) [nM],Compound
< 500,> 5000,,,"O=C(O)COc1ccc(Br)cc1-c1nc(-c2ccccn2)no1 [D133, [4-Bromo-2-(3-pyridin-[1,2,4]oxadiazol-5-yl)phenoxy]acetic acid]"
< 500,< 500,,,"CSc1ccccc1-n1cc(C(=O)c2cc(Br)ccc2OC(C)C(=O)O)cn1 (stereo not shown) [D49, 2-{4-Bromo-2-[1-(2-methylthio)-1H-pyrazole-4-carbonyl]phenoxy}propionic acid]"
< 500,< 500,,,"O=C(O)COc1ccc(Br)cc1CC1SC(=O)N(Cc2ccc(Cl)cc2)C1=O (stereo not shown) [D141, 4-Bromo-2-[3-(4-chlorobenzyl)-2,4-dioxothiazolidin-5-ylmethyl]phenoxyacetic acid]"
< 500,< 500,,,"CC(Oc1ccc(Br)cc1C(=O)c1cnn(-c2ccc(Cl)c(Cl)c2)c1)C(=O)O (stereo not shown) [D64, 2-{4-Bromo-2-[1-(3,4-dichloro-phenyl)-1H-pyrazole-4-carbonyl]phenoxy}propionic acid]"
< 500,< 500,,,"CCc1cccc(C)c1-n1cc(C(=O)c2cc(Br)ccc2OCC(=O)O)cn1 [D72, {4-Bromo-2-[1-(2-ethyl-6-methylphenyl)-1H-pyrazole-4-carbonyl]phenoxy}acetic acid]"
< 500,< 500,,,"O=C(O)COc1ccc([N+](=O)[O-])cc1C(=O)c1cnn(-c2ccccc2Br)c1 [D28, 4-Nitro-2-[1-(2-bromophenyl)-1H-pyrazole-4-carbonyl]phenoxyacetic acid]"
< 500,< 500,,,"CCOc1ccccc1-n1cc(C(=O)c2cc(Br)ccc2OC(C)C(=O)O)cn1 (stereo not shown) [D48, 2-{4-Bromo-2-[1-(2-ethoxyphenyl)-1H-pyrazole-4-carbonyl]phenoxy}propionic acid]"
< 500,< 500,,,"O=C(O)COc1ccc(Br)cc1-c1noc(-c2ccc(Cl)cc2)n1 [D135, {4-Bromo-2-[5-(4-chlorophenyl)-[1,2,4]oxadiazol-3-yl]phenoxy}acetic acid]"
< 500,< 500,,,"Cc1ccc(-n2cc(C(=O)c3cc(Br)ccc3OCC(=O)O)cn2)c(Br)c1 [D45, {4-Bromo-2-[1-(2-bromo-4-methylphenyl)-1H-pyrazole-4-carbonyl]phenoxy}acetic acid]"
< 500,< 500,,,"CC(Oc1ccc(Br)cc1C(=O)c1cnn(-c2ccc(Br)cc2Br)c1)C(=O)O (stereo not shown) [D69, 2-{4-Bromo-2-[1-(2,4-dibromophenyl)-1H-pyrazole-4-carbonyl]phenoxy}propionic acid]"
< 500,< 500,,,"O=C(O)COc1ccc(Br)cc1C(=O)c1cnn(-c2ccc(Cl)cc2)c1 [D17, 4-Bromo-2-[1-(4-chlorophenyl)-1H-pyrazole-4-carbonyl]phenoxyacetic acid]"
< 500,< 500,,,"CCc1cc(Br)ccc1-n1cc(C(=O)c2cc(Br)ccc2OCC(=O)O)cn1 [D42, {4-Bromo-2-[1-(4-bromo-2-ethylphenyl)-1H-pyrazole-4-carbonyl]phenoxy}acetic acid]"
< 500,< 500,,,O=C(O)COc1ccccc1C=NNC(=O)COc1ccc(Cl)cc1Cl [D149]
< 500,< 500,,,"O=C(O)COc1ccc(Br)cc1-c1coc(Cc2ccccc2)n1 [D88, [2-(2-Benzyloxazol-4-yl)-4-bromophenoxy]acetic acid]"
< 500,< 500,,,"O=C(O)COc1ccc(-c2ccc(Cl)cc2)cc1C(=O)c1cnn(-c2ccccc2)c1 [D9, [4′-Chloro-3-(1-phenyl-1H-pyrazole-4-carbonyl)biphenyl-4-yloxy]acetic acid]"
< 500,< 500,,,"O=C(O)COc1ccc(Br)cc1-c1coc(Cc2ccc(F)cc2Cl)n1 [D90, {4-Bromo-2-[2-(2-chloro-4-fluorobenzyl)oxazol-4-yl]phenoxy}acetic acid]"
